# According to patent publication US12012396B2, “HDAC inhibitor solid state forms” (Viracta Subsidiary, Inc., priority 2020, dated 2024):
# Entries after “also recorded” stand apart in the source; their conditions may differ.
# What was measured:
# Type in all cases: physicochemical
# [1] = Static storage stability at elevated temperature/humidity (XRPD, HPLC purity)
# Procedure: XRPD diffractograms were collected on a Bruker D8 diffractometer using Cu Kα, radiation (40 kV, 40 mA) and a 0-20 goniometer fitted with a Ge monochromator. The incident beam passes through a 2.0 mm divergence slit followed by a 0.2 mm anti-scatter slit and knife edge. The diffracted beam passes through an 8.0 mm receiving slit with 2.5° Soller slits followed by the Lynxeye Detector. The software used for data collection and analysis was Diffrac Plus XRD Commander and Diffrac Plus EVA respectively.
# XRPD diffractograms were collected on a PANalytical Empyrean diffractometer using Cu Kα, radiation (45 kV, 40 mA) in transmission geometry. A 0.5° slit, 4 mm mask and 0.04 rad Soller slits with a focusing mirror were used on the incident beam. A PIXcel3D detector, placed on the diffracted beam, was fitted with a receiving slit and 0.04 rad Soller slits. The software used for data collection was X'Pert Data Collector using X'Pert Operator Interface. The data were analyzed and presented using Diffrac Plus EVA or HighScore Plus.
# Purity analysis was performed on an AgilentHP1100/Infinity 111260 series system equipped with a diode array detector and using OpenLAB software.
# [2] = Thermodynamic aqueous solubility; settings: water, after 24 hours equilibration
# Procedure: Aqueous solubility was determined by suspending sufficient compound in 0.5 ml deionized water to give a maximum final concentration of 40 mg/mi of the parent free-form of the compound. The suspension was equilibrated at 25° C., on a Heidolph plate shaker set to 750 rpm for 24 hours. After equilibration, the appearance was noted and the pH of the saturated solution was measured. Samples forming suspensions were centrifuged for 4 min at 13,500 rpm. Samples were then filtered through a glass fiber C filter (particle retention 1.2 μm), before dilution with H2O as appropriate.
# Quantitation was by HPLC (see Table 2 for parameters) with reference to a standard solution of approximately 0.15 mg/ml in DMSO. Different volumes of the standard, diluted and undiluted sample solutions were injected. The solubility was calculated using the peak areas determined by integration of the peak found at the same retention time as the principal peak in the standard injection. Analysis was performed on an AgilentHPl 100/Infinity II 1260 series system equipped with a diode array detector and using OpenLAB software.
# [3] = Gravimetric Vapour Sorption (GVS)
# Procedure: Sorption isotherms were obtained using a SMS DVS Intrinsic moisture sorption analyser, controlled by DVS Intrinsic Control software. The sample temperature was maintained at 25° C. by the instrument controls. The humidity was controlled by mixing streams of dry and wet nitrogen, with a total flow rate of 200 ml/min. The relative humidity was measured by a calibrated Rotronic probe (dynamic range of 1.0-100% RH), located near the sample. The weight change, (mass relaxation) of the sample as a function of % RH was constantly monitored by a microbalance (accuracy ±0.005 mg). Typically, 20-30 mg of sample was placed in a tared mesh stainless steel basket under ambient conditions. The sample was loaded and unloaded at 40% RH and 25° C. (typical room conditions). A moisture sorption isotherm was performed as outlined below (2 scans per complete cycle). The standard isotherm was performed at 25° C. at 10% RH intervals over a 0-90% RH range. Typically, a double cycle (4 scans) was carried out. Data analysis was carried out within Microsoft Excel using the DVS Analysis Suite. [table]
# [4] = Competitive slurries of anhydrous and hydrated forms in different water activity
# Procedure: Competitive slurries of the anhydrous and hydrated forms in different water activity at 50° C. and 5° C. were used to determine the thermodynamic stability relationships.
# [5] = physchem; settings: thermodynamic from solid
# From the text: There was insufficient residue to characterize these further.
# [6] = 7 days / 1 week at 25° C./97% RH
# [7] = 7 days / 1 week at 40° C./75% RH
smiles,measurement,setting,value
"O=C(NO)c1cnc(N2C[C@@H]3[C@H](C2)[C@H]3NCc2ccc3cc(F)ccc3n2)nc1 [Mesylate Form 1, N-hydroxy 2-{6-[(6-fluoro-quinolin-2-ylmethyl)-amino]-3-aza-bicyclo[3.1.0]hex-3-yl}pyrimidine-5-carboxamide]",Purity after static storage,[1]; 14 weeks at 25° C./97% RH,93.5%
same,Solid form by XRPD after static storage,[1]; 14 weeks at 25° C./97% RH,Mesylate Form 1
same,Purity after static storage,[1]; 14 weeks at 40° C./75% RH,Form 2 (94.7% purity)
same,HPLC purity after static storage,[1]; [6],no significant drop in purity
same,Solid form by XRPD after static storage,[1]; [6],"unchanged; also recorded: No change, Mesylate Form 1"
same,HPLC purity after static storage,[1]; [7],no significant drop in purity
same,Solid form by XRPD after static storage,[1]; [7],"unchanged; also recorded: No change, Mesylate Form 1"
same,pH of saturated solution,[2],(pH = 3.2)
same,Hygroscopicity by GVS,[3]; 25° C.,RH: Slightly hygroscopic.
same,XRPD post-GVS,[3]; residue after GVS,no change; also recorded: XRPD remains unchanged
same,Water activity up to which the form was the most stable,[4]; competitive slurries at 5° C.,≥ 0.3 aw
same,Water activity up to which the form was the most stable,[4]; competitive slurries at 50° C.,0.6 aw
same,solubility thermodynamic,"[5]; fassgf or other biorelevant, Thermodynamic solubility in FaSSGF",21000 µg/mL
same,solubility thermodynamic,"[5]; fassif, Thermodynamic solubility in FaSSIF",1900 µg/mL
same,solubility thermodynamic,"[5]; fessif, Thermodynamic solubility in FeSSIF",340 µg/mL
